Values after ≈ are worked out from the molar mass of the structure shown.
What was measured:
[1] = tested on: S. typhimurium WT; assay: Antimicrobial resistance studies (single step and sequential passage); format: cell-based, Salmonella enterica subsp. enterica serovar Typhimurium LT2
Experimental: Antimicrobial resistance studies: Single step and sequential passage resistance assays were performed as described (9). The MIC of the selected five SMs against S. typhimurium WT was used as reference for lethal (2×MIC) and sub-lethal (0.75×MIC) doses.
The medium was allowed to solidify overnight in the dark at room temperature. The next day, 100 μl of S. typhimurium bacteria (approximately 10^9 CFU) was transferred onto the adjusted M9 agar containing 2×MIC of SMs. S. typhimurium WT growth in 2% DMSO, 20 μg/ml chloramphenicol, or 50 μg/ml kanamycin, and adjusted M9 medium only were used as controls. The plate was sealed with parafilm and incubated for 15 days in the dark at 37° C. After 15 days, 100 μl of LB broth was added to the wells of 24-well plate showing no colonies in order to resuspend the potential surviving bacteria and transferred into a 5 ml tube.
The plate was incubated in the dark at 37° C., 175 rpm for 12 hrs. After this first passage, the plate was centrifuged for seven min at 4500 rpm. Supernatant was replaced with a fresh adjusted M9 broth media amended with 0.75×MIC of the corresponding SM. This procedure was repeated fourteen times. Following the 15th passage, a dose-response assay was performed on the remaining alive S. typhimurium bacteria as describe previously.

[2] = tested on: Salmonella Anatum; assay: MIC and MBC dose-response, serotype Anatum; format: cell-based, Salmonella enterica; conditions: MIC identical to MBC
Experimental: (§1) An overnight Salmonella suspension was normalized at 0.05 OD600 (approximately 3.5×10^7 CFU/ml) with an adjusted M9 minimal broth medium (12.7 mM Na2HPO4 7H2O; 22 mM KH2PO4; 18.7 mM NH4Cl; 2 mM MgSO4; 0.1 mM CaCl2; 0.4% glucose; 0.05% casamino acids). 100 μL of the suspension plus 2 μl of SMs (200 μM) were transferred into each well of a sterile, non-treated, flat bottom 96-well plate. Bacteria alone (negative control, NC), 2% DMSO plus bacteria (DMSO control), 20 μg/ml chloramphenicol or 50 μg/ml kanamycin plus bacteria (positive controls, PC), and M9 medium only were used as control. Plates were incubated in a Sunrise™ Tecan kinetic microplate reader for 12 hrs at 37° C. and the optical density (OD) was measure at 600 nm as described above. Percentage of inhibition=(OD600 SM−OD600 NC)/(OD600 NC)×100. […] Cultures from wells showing no turbidimetric increase were transferred onto a XLT4 agar plate. Plates were incubated at 37° C. for 36 hrs.
(§2) Screens were performed as described in the primary screen. The lowest SM concentration with a static effect was considered as the minimal inhibitory concentration (MIC) and the lowest SM concentration with a cidal effect was considered as the minimal bactericidal concentration (MBC).

[3] = tested on: Salmonella Enteritidis; assay: MIC and MBC dose-response, serotype Enteritidis; format: cell-based, Salmonella enterica; conditions: MIC identical to MBC
Experimental: as §1, §2

[4] = tested on: Salmonella Albany; assay: MIC and MBC dose-response, serotype Albany; format: cell-based, Salmonella enterica; conditions: MIC identical to MBC
Experimental: as §1, §2

[5] = tested on: Salmonella Newport; assay: MIC and MBC dose-response, serotype Newport; format: cell-based, Salmonella enterica; conditions: MIC identical to MBC
Experimental: as §1, §2

[6] = tested on: S. typhimurium WT; assay: MIC and MBC dose-response, serotype Typhimurium; format: cell-based, Salmonella enterica subsp. enterica serovar Typhimurium LT2; conditions: Salmonella serotype Typhimurium; MIC identical to MBC
Experimental: as §1, §2

[7] = tested on: Salmonella Braenderup; assay: MIC and MBC dose-response, serotype Braenderup; format: cell-based, Salmonella enterica; conditions: MIC identical to MBC
[8] = tested on: Salmonella Saint-Paul; assay: MIC and MBC dose-response, serotype Saint-Paul; format: cell-based; conditions: MIC identical to MBC
Experimental: as §1, §2

[9] = tested on: Salmonella Heidelberg; assay: MIC and MBC dose-response, serotype Heidelberg; format: cell-based, Salmonella enterica; conditions: MIC identical to MBC
Experimental: as §1, §2

[10] = tested on: S. typhimurium WT; assay: High-throughput primary screen for S. typhimurium growth inhibitors at 200 μM; format: cell-based, Salmonella enterica subsp. enterica serovar Typhimurium LT2; conditions: adjusted M9 minimal broth, 12 hrs, 37° C., bactericidal = 100% growth inhibition and no growth on XLT4 agar, bacteriostatic = 100% growth inhibition but growth on XLT4 agar
Experimental: Identification of S. typhimurium growth inhibitors: The 4182 small molecules (SMs) were screened at 200 μM against S. typhimurium WT using HTS assay in a 96-well plate format. An overnight Salmonella suspension was normalized at 0.05 OD600 (approximately 3.5×10^7 CFU/ml) with an adjusted M9 minimal broth medium (12.7 mM Na2HPO4 7H2O; 22 mM KH2PO4; 18.7 mM NH4Cl; 2 mM MgSO4; 0.1 mM CaCl2; 0.4% glucose; 0.05% casamino acids). 100 μL of the suspension plus 2 μl of SMs (200 μM) were transferred into each well of a sterile, non-treated, flat bottom 96-well plate. Bacteria alone (negative control, NC), 2% DMSO plus bacteria (DMSO control), 20 μg/ml chloramphenicol or 50 μg/ml kanamycin plus bacteria (positive controls, PC), and M9 medium only were used as control. Plates were incubated in a Sunrise™ Tecan kinetic microplate reader for 12 hrs at 37° C. and the optical density (OD) was measure at 600 nm as described above. Percentage of inhibition=[…]. SMs were identified as growth inhibitors if their inhibition value after incubation was above 20% (value representing the inhibition level monitored with the DMSO controls). Cultures from wells showing no turbidimetric increase were transferred onto a XLT4 agar plate. Plates were incubated at 37° C. for 36 hrs.

[11] = tested on: Salmonella Javiana; assay: MIC and MBC dose-response, serotype Javiana; format: cell-based, Salmonella enterica; conditions: MIC identical to MBC
Experimental: as §1, §2

[12] = tested on: Kan^R S. typhimurium; assay: Preventive efficacy in S. typhimurium-infected G. mellonella larvae; format: in vivo, Galleria mellonella; conditions: 72 HPI; pretreated with 12.5 μg per larva 2 hrs before infection
Experimental: FIGS. 4(A-B). Preventive antimicrobial efficacy of SM treatment in S. typhimurium-infected G. mellonella. Larva were first treated with 12.5 μg SMs per larva (50 mg/kg), incubated for 2 hrs at 37° C. in the dark, then infected with 10^4 CFU per larva, and further incubated at 37° C. in the dark for 72 hrs. FIG. 4A: G. mellonella larva survival rate. Survival rate was monitored every 12 hours for 72 hrs. Infected larva treated with chloramphenicol control (CK) had 100% survival. FIG. 4B: Bacterial quantification of Salmonella inside larvae following death of larva or, if alive, after 72 hours of incubation. Light black dot: larva still alive after 72 hrs post-inoculation (HPI); Black dot: larvae dead before 72 HPI.
Effect of the selected four SMs on S. typhimurium intracellular survival in G. mellonella larvae: Wax moths were selected as mentioned previously in the toxicity assay section. First, the virulence of both Kan^R and WT S. typhimurium strains in G. mellonella was assessed. Briefly, a S. typhimurium suspension normalized at approximately 10^6 CFU/ml in 10 mM MgSO4 was used as the inoculum. […] Survival rate was monitored every 12 hrs. The bacterial quantification was performed once the larvae were considered dead (dark pigmentation or no reaction to a mechanical stimulus) or after the 72 hrs of incubation. […]

| Structure (SMILES) | Effect on S. Typhimurium at 200 μM [10] | other results |
| --- | --- | --- |
| CN(CCO)CC(O)Cn1c2ccc(Br)cc2c2cc(Br)ccc21 (stereo not drawn) [SM2, 1-(3,6-dibromo-9H-carbazol-9-yl)-3-[(2-hydroxyethyl)(methyl)amino]-2-propanol] | Bactericidal | resistance after repeated exposure at sub-lethal dose ([1]; 0.75×MIC in liquid medium, 15 passages at 37° C.): developed resistance mechanisms; resistance after single exposure at a lethal dose ([1]; 2×MIC in solid medium): developed resistance mechanisms; SM concentration at which resistant bacteria were able to grow ([1]; minimal growth condition, represents 4×MBC): 400 µM; MIC/MBC [2]: 200 µM (≈ 91.2 µg/mL); MIC/MBC [3]: 200 µM (≈ 91.2 µg/mL); MIC/MBC [4]: 200 µM (≈ 91.2 µg/mL); MIC/MBC [5]: 200 µM (≈ 91.2 µg/mL); MIC/MBC [6]: 100 µM (≈ 45.6 µg/mL); MIC/MBC [7]: 200 µM (≈ 91.2 µg/mL); MIC/MBC [8]: 200 µM (≈ 91.2 µg/mL); MIC/MBC [9]: 200 µM (≈ 91.2 µg/mL); MIC/MBC [11]: 200 µM (≈ 91.2 µg/mL) |
| CN(Cc1ccccc1)CC(O)COc1ccc(CNCc2ccc(Cl)s2)cc1 (stereo not drawn) [SM6, 1-[benzyl(methyl)amino]-3-[4-({[(5-chloro-2-thienyl)methyl]amino}methyl)phenoxy]-2-propanol] | Bactericidal |  |
| O=[N+]([O-])c1ccc(F)c(N=Cc2cc(Cl)cc(Cl)c2O)c1 [SM7, 2,4-dichloro-6-{[(2-fluoro-5-nitrophenyl)imino]methyl}phenol] | Bactericidal |  |
| COc1cccc(N=Cc2cc(Cl)cc(Cl)c2O)c1 [SM8, 2,4-dichloro-6-{[(3-methoxyphenyl)imino]methyl}phenol] | Bactericidal |  |
| CC(C)Cc1ccc(CN2CCCC(NC(=O)CN3CCCN(C)CC3)C2)cc1 (stereo not drawn) [SM9, N-[1-(4-isobutylbenzyl)-3-piperidinyl]-2-(4-methyl-1,4-diazepan-1-yl)acetamide] | Bactericidal |  |
| CCOC(=O)c1c(N)sc(C(C)=O)c1C [SM10, ethyl 5-acetyl-2-amino-4-methyl-3-thiophenecarboxylate] | Bacteriostatic |  |
| COc1cccc(C2(c3ccc(O)cc3)CCCC2)c1 [SM11, 4-[1-(3-methoxyphenyl)cyclopentyl]phenol] | Bacteriostatic |  |
| O=C(O)c1cc(NN=Nc2ccc(Br)cc2)cc([N+](=O)[O-])c1 [SM12, 3-[3-(4-bromophenyl)-2-triazen-1-yl]-5-nitrobenzoic acid] | Bacteriostatic |  |
| Clc1ccc(CCNC2CCN(Cc3ccccc3)CC2)c(Cl)c1 [SM13, 1-benzyl-N-[2-(2,4-dichlorophenyl)ethyl]-4-piperidinamine] | Bacteriostatic |  |
| COc1ccc(CNCc2ccc(C)cc2)cc1OCC(O)CN1CCCCCCC1 (stereo not drawn) [SM15, 1-(1-azocanyl)-3-(2-methoxy-5-{[(4-methylbenzyl)amino]methyl}phenoxy)-2-propanol] | Bacteriostatic |  |
| COc1cccc(N=Cc2cc(Br)ccc2O)c1 [SM16, 4-bromo-2-{[(3-methoxyphenyl)imino]methyl}phenol] | Bacteriostatic |  |
| CN1C(=O)NC(=O)C(=Cc2ccc([N+](=O)[O-])o2)C1=O [SM17, 1-methyl-5-[(5-nitro-2-furyl)methylene]-2,4,6(1H,3H,5H)-pyrimidinetrione] | Bacteriostatic |  |
| CC1=NN(c2ccccc2)C(=O)C1C(=O)c1ccccc1 (stereo not drawn) [SM18, 4-benzoyl-5-methyl-2-phenyl-2,4-dihydro-3H-pyrazol-3-one] | Bacteriostatic |  |
| C(=Cc1ccccc1)CN1CCN(C2c3ccccc3-c3ccccc32)CC1 [SM19, 1-(9H-fluoren-9-yl)-4-(3-phenyl-2-propen-1-yl)piperazine] | Bacteriostatic |  |
| O=C(N[C@H](CO)[C@H](O)c1ccc([N+](=O)[O-])cc1)C(Cl)Cl [chloramphenicol] |  | survival of infected larvae [12]: 100% |

From patent US12161630B2, “Methods to control infection using new generation small molecule growth inhibitors” (priority 2017, dated 2024)
